The results in this text go back to patent publication US20210395327A1, “Growth Hormone-Releasing Hormone Antagonists and Uses Thereof” (United States Government As Represented By The Department …, priority 2019, published 2021).

Non-standard residues stand in square brackets, D forms with d. Residues, ends and D or L forms follow the SMILES beside them. *: point of attachment. Phenylacetyl(2,3,4,5,6-F5) = O=C(Cc1c(F)c(F)c(F)c(F)c1F)*; Phe(F5) = N[C@@H](Cc1c(F)c(F)c(F)c(F)c1F)C(=O)O; hArg = N=C(N)NCCCC[C@H](N)C(=O)O; 12Ado = NCCCCCCCCCCCC(=O)O; Nle = CCCC[C@H](N)C(=O)O; Abu = CC[C@H](N)C(=O)O

A word on the % Inhibition: it is the relative decrease from the control value, in per cent. A low value points to a weak effect.

Assay [1] deals with stomach cancer N87 xenograft. The assay can be described thus: Xenograft tumor growth in nude mice, N87. The note with it: 2 μg/day s.c.; for % Inhibition: vs control. Format: in vivo.
Assay [2] concerns NCI-N87 stomach cancer cells. Nature of the assay: In vitro cell viability (CellTiter 96), N87. It counts as cell-based, human. In outline: (§1)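 Cells grown to ~60% confluence, serum-starved 24 h in 0.5% FBS medium, then exposed to compounds at 5 μM (some at 2 μM) or 0.1% DMSO vehicle for 72 h, in quintuplicate, medium changed every 48 h. Viability read by MTS-type CellTiter 96 AQueous assay; values are inhibitory potency relative to MIA602.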

In assay [3] the test system is HT-29 colon cancer cells. The assay can be described thus: In vitro cell viability, HT-29. Format: cell-based, human. To be noted: Table 3B; 5 μM for 72 H; MIA-602 = 1. How it is done:
The inhibitory effects of the various synthesized GHRH antagonists were tested in cell proliferation assays in various human cancer cell lines including stomach cancer (KATOIII, N87), colon cancer (HT-29), urothelial cancer (J82, RT4), pancreatic cancer (PANC-1, CFPAC-1), prostatic cancer (PC3), breast cancer (MX-1, HCC1806), ovarian cancer (SK-OV-3, OVCAR-3) and lung cancer (HCC827, H460).
Cell culture. Human cancer cell lines including pancreatic (PANC-1 and CFPAC-1), lung (HCC827 and H460), stomach (NCI-N87 and KATOIII), urothelial (J82, RT4), prostatic (PC3), breast (MX-1 and HCC 1806), colorectal (HT-29), and ovarian (SK-OV-3 and OVCAR-3) were obtained from the American Type Culture Collection (ATCC) and cultured at 37° C. in a humidified 95% air/5% CO2 atmosphere in the medium recommended by ATCC.
In vitro cell viability. Cell viability was analyzed as follows: cancer cells including pancreatic (PANC-1 and CFPAC-1), lung (HCC827 and H460), stomach (NCI-N87 and KATOIII), urothelial (J82, RT4), prostatic (PC3) and breast (MX-1 and HCC 1806), colorectal (HT-29) and ovarian (SK-OV-3 and OVCAR-3) were grown on 96 well plates to ˜60% confluence, the cells were starved for 24 h in culture medium containing 0.5% FBS. Cells were then treated with GHRH antagonists MIA602 AVR compounds at concentrations of 1, 2.5 or 5 μM, or vehicle (0.1% DMSO) in quintuplicates for 72 hours. The medium was replaced every 48 hours. Cell viability was measured using CellTiter 96 aqueous one solution kit (Promega). Inhibitory effects of tested AVR compounds in comparison to that of MIA602 are presented as inhibitory potency.
Inhibitory effects of selected AVR compounds in comparison to that of MIA602 are presented as inhibitory potency (e.g., percentage of inhibition). […] The cell lines tested including lung cancer HCC827 (FIG. 2A), pancreatic cancer CFPAC-1 (FIG. 2B), stomach cancer N87 (FIG. 2C), colon cancer HT-29 (FIG. 2D), breast cancers MX-1 and HCC1806 (FIGS. 2 E, F). Based on the results of cell proliferation assay after cancer cells were treated with antagonist at concentration of 5 μM for 72H, the relative inhibitory potency of AVR antagonists in comparison to MIA-602 is summarized in Table 3 A and B. Over 60 AVR compounds were tested in 12 cancer cell lines.
Based on the results of cell proliferation assay after cancer cells were treated with antagonist at concentration of 5 µM for 72H, * at concentration of 2 µM for 72 H.

The subject of assay [4] is HCC827 lung cancer cells. The assay can be described thus: In vitro cell viability, HCC827. Format: cell-based, human. A digest of the protocol:
as §1

Setting [5] is: Table 4D, Stomach Ca N87, 10 weeks.
Where [6] appears, read: Table 4F, Stomach Ca N87, 4 weeks.
The mark [7] stands for this setting: Table 3B, 5 μM for 72 H, MIA-602 = 1.
Setting [8] is: antagonist 5 μM for 72 h, cell proliferation assay, MIA602 = 1.

With `CCCC[C@H](NC(=O)[C@@H](NC(=O)[C@H](CC(=O)O)NC(=O)[C@H](CCC(N)=O)NC(=O)[C@H](CC(C)C)NC(=O)[C@H](CC(C)C)NC(=O)[C@H](CCCCN)NC(=O)[C@H](CCCNC(=N)N)NC(=O)[C@H](C)NC(=O)[C@H](CO)NC(=O)[C@H](CC(C)C)NC(=O)[C@H](CCC(N)=O)NC(=O)[C@H](CC)NC(=O)[C@H](CC(C)C)NC(=O)[C@@H](NC(=O)[C@H](CCCCN)NC(=O)[C@H](CCCNC(=N)N)NC(=O)[C@H](Cc1ccc(OC)cc1)NC(=O)[C@H](CCCCNC(=N)N)NC(=O)[C@H](C)NC(=O)[C@@H](NC(=O)[C@H](Cc1c(F)c(F)c(F)c(F)c1F)NC(=O)[C@@H](NC(=O)[C@H](C)NC(=O)[C@H](CC(=O)O)NC(=O)[C@@H](CCCNC(=N)N)NC(=O)[C@H](Cc1ccc(O)cc1)NC(=O)CCCCCCCCCCCNC(=O)Cc1c(F)c(F)c(F)c(F)c1F)[C@@H](C)CC)[C@@H](C)O)C(C)C)[C@@H](C)CC)C(=O)N[C@H](CCCNC(=N)N)C(=O)N[C@@H](CCCCNC(=N)N)C(=O)NC` [AVR-235] ({Phenylacetyl(2,3,4,5,6-F5)-12Ado}-Y[dR]DAI[Phe(F5)]TA[hArg]Y(Me)RKVL[Abu]QLSARKLLQDI[Nle][dR][hArg]-NHMe), in assay [1] (setting [5]), the “Tumor Size (mm^3)” value is 558.60 mm^3 and the “% Inhibition” value was 54.4%. Besides, in assay [1] (setting [6]), the “Tumor Growth %” value was found to be 312.80% and the “% Inhibition” value amounted to 64.9%. Besides, the “In vitro relative inhibitory potency in comparison to MIA-602, NCI-N87” value in assay [2] (setting [7]) amounted to 1.67. Besides, the “relative inhibitory potency in comparison to MIA-602, Stomach N87” value in assay [2] (setting [8]) was determined as 2.911. Moreover, the “In vitro relative inhibitory potency in comparison to MIA-602, HT-29” value in assay [3] was 0.968. For the same compound, in assay [4] (setting [7]), the “In vitro relative inhibitory potency in comparison to MIA-602, HCC827” value is on record as 1.08. Also, the “relative inhibitory potency in comparison to MIA-602, Lung IICC827” value in assay [4] (setting [8]) amounted to 1.506.
